# From US20240124417A1, “COMPOUNDS USEFUL AS IMMUNOMODULATORS” (Bristol-Myers Squibb Company, priority 2019, published 2024)
# Target: T1, PD-1/PD-L1 (Homo sapiens, UniProt Q9NZQ7)
# T1 construct: TVMV protease site linker (C); made in house; host or cells: HEK293T cells
# Assay: PD-1/PD-L1 Homogenous Time-Resolved Fluorescence (HTRF) binding assay
# Conditions: PD-L1-His 10 nM, PD-1-Ig 20 nM
# Method in brief: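 Inhibitors pre-incubated 15 min with PD-L1-His extracellular domain (10 nM final) in dPBS with 0.1% BSA and 0.05% Tween-20, then PD-1-Ig (20 nM final) added for a further 15 min. Read-out by HTRF with europium cryptate anti-Ig (1 nM) and APC anti-His (20 nM). Related pairs: PD-1-Ig/PD-L2-His (20/5 nM), CD80-His/PD-L1-Ig (100/10 nM).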
# T1 sequence (Q9NZQ7 18-239): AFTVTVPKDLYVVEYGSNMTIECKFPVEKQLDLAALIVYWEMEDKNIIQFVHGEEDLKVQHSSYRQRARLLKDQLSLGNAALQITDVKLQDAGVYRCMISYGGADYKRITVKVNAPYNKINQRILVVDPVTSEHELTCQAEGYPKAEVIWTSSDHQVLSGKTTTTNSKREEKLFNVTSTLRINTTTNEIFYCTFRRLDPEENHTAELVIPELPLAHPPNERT
row,SMILES,IC50
1,"CC(=O)NC1CCN(CCCOc2cccc(-c3cccc(COc4cc(OCc5cncc(C#N)c5)c(CN5CCCC(c6nnn[nH]6)C5)cc4Cl)c3C)c2C)CC1 (stereo not drawn) [Example 1041, N-(1-(3-((3′-((4-((3-(1H-Tetrazol-5-yl)piperidin-1-yl)methyl)-2-chloro-5-((5-cyano-pyridin-3-yl)methoxy)phenoxy)methyl)-2,2′-dimethyl-[1,1′-biphenyl]-3-yl)oxy)propyl)-piperidin-4-yl)acetamide]",0.5 nM
2,"Cc1c(COc2cc(OCc3cncc(C#N)c3)c(CNC3CCc4[nH]ncc4C3)cc2Cl)cccc1-c1cccc(OCCCN2CC[C@@H](O)C2)c1C (stereo partly drawn) [Example 2563, 5-((4-chloro-5-((3′-(3-((R)-3-hydroxypyrrolidin-1-yl)propoxy)-2,2′-dimethyl-[1,1′-biphenyl]-3-yl)methoxy)-2-(((4,5,6,7-tetrahydro-1H-indazol-5-yl)amino)methyl)phenoxy)methyl)nicotinonitrile]",0.5 nM
3,"Cc1c(COc2cc(OCc3cncc(C#N)c3)c(CNCc3cc[nH]n3)cc2Cl)cccc1-c1cccc(OCCCN2CC[C@@H](O)C2)c1C [Example 2001, (R)-5-((2-((((1H-pyrazol-3-yl)methyl)amino)methyl)-4-chloro-5-((3′-(3-(3-hydroxypyrrolidin-1-yl)propoxy)-2,2′-dimethyl-[1,1′-biphenyl]-3-yl)methoxy)phenoxy)methyl)nicotinonitrile]",0.2 nM
4,"Cc1c(COc2cc(OCc3cncc(C#N)c3)c(CN3CCCC3c3nnn[nH]3)cc2Cl)cccc1-c1cccc(OCCCN2CC[C@@H](O)C2)c1C (stereo partly drawn) [Example 1015, 5-((2-((2-(1H-Tetrazol-5-yl)pyrrolidin-1-yl)methyl)-4-chloro-5-((3′-(3-((R)-3-hydroxy-pyrrolidin-1-yl)propoxy)-2,2′-dimethyl-[1,1′-biphenyl]-3-yl)methoxy)phenoxy)methyl)-nicotinonitrile]",2.9 nM
5,"Cc1c(COc2cc(OCc3cncc(C#N)c3)c(CNCCc3nc4ccccc4n3C)cc2Cl)cccc1-c1cccc(OCC2CCCN(C)C2)c1Cl (stereo not drawn) [Example 2605, 5-((4-chloro-5-((2′-chloro-2-methyl-3′-((1-methylpiperidin-3-yl)methoxy)-[1,1′-biphenyl]-3-yl)methoxy)-2-(((2-(1-methyl-1H-benzo[d]imidazol-2-yl)ethyl)amino)methyl)phenoxy)methyl)nicotinonitrile]",0.6 nM
6,"Cc1c(COc2cc(OCc3cncc(C#N)c3)c(CN(C)CCc3c[nH]cn3)cc2Cl)cccc1-c1cccc(OCCCN2CC[C@@H](O)C2)c1C [Example 2535, (R)-5-((2-(((2-(1H-imidazol-4-yl)ethyl)(methyl)amino)methyl)-4-chloro-5-((3′-(3-(3-hydroxypyrrolidin-1-yl)propoxy)-2,2′-dimethyl-[1,1′-biphenyl]-3-yl)methoxy)phenoxy)methyl)nicotinonitrile]",3.9 nM
7,"Cc1nc(CNCc2cc(Cl)c(OCc3cccc(-c4cccc(OCC5CCCN(C)C5)c4Cl)c3C)cc2OCc2cncc(C#N)c2)no1 (stereo not drawn) [Example 2603, 5-((4-chloro-5-((2′-chloro-2-methyl-3′-((1-methylpiperidin-3-yl)methoxy)-[1,1′-biphenyl]-3-yl)methoxy)-2-((((5-methyl-1,2,4-oxadiazol-3-yl)methyl)amino)methyl)phenoxy)methyl)nicotinonitrile]",0.9 nM
8,"Cc1c(COc2cc(OCc3cncc(C#N)c3)c(CN(C)Cc3c[nH]cn3)cc2Cl)cccc1-c1cccc(OCCCN2CCC(O)(CO)CC2)c1Cl [Example 2014, 5-((2-((((1H-imidazol-4-yl)methyl)(methyl)amino)methyl)-4-chloro-5-((2′-chloro-3′-(3-(4-hydroxy-4-(hydroxymethyl)piperidin-1-yl)propoxy)-2-methyl-[1,1′-biphenyl]-3-yl)methoxy)phenoxy)methyl)nicotinonitrile]",0.5 nM
9,"Cc1c(COc2cc(OCc3cncc(C#N)c3)c(CN3CCCCC3c3cn[nH]c3)cc2Cl)cccc1-c1cccc(OCCCN2CC[C@@H](O)C2)c1C (stereo partly drawn) [Example 1011, 5-((2-((2-(1H-Pyrazol-4-yl)piperidin-1-yl)methyl)-4-chloro-5-((3′-(3-((R)-3-hydroxy-pyrrolidin-1-yl)propoxy)-2,2′-dimethyl-[1,1′-biphenyl]-3-yl)methoxy)phenoxy)methyl)-nicotinonitrile]",17.5 nM
10,"Cc1c(COc2cc(OCc3cncc(C#N)c3)c(CNCCc3cc[nH]n3)cc2Cl)cccc1-c1cccc(OCCCN2CC[C@@H](O)C2)c1C [Example 2514, (R)-5-((2-(((2-(1H-pyrazol-3-yl)ethyl)amino)methyl)-4-chloro-5-((3′-(3-(3-hydroxypyrrolidin-1-yl)propoxy)-2,2′-dimethyl-[1,1′-biphenyl]-3-yl)methoxy)phenoxy)methyl)nicotinonitrile]",1.9 nM
11,"Cc1c(COc2cc(OCc3cncc(C#N)c3)c(CN(C)Cc3nnn[nH]3)cc2Cl)cccc1-c1cccc(OCCCN2CC[C@@H](O)C2)c1C [Example 1016, (R)-5-((2-((((1H-Tetrazol-5-yl)methyl)(methyl)amino)methyl)-4-chloro-5-((3′-(3-(3-hydroxypyrrolidin-1-yl)propoxy)-2,2′-dimethyl-[1,1′-biphenyl]-3-yl)methoxy)phenoxy)-methyl)nicotinonitrile]",1.9 nM
12,"Cc1c(COc2cc(OCc3cncc(C#N)c3)c(CN(C)CCc3ncn[nH]3)cc2Cl)cccc1-c1cccc(OCCCN2CC[C@@H](O)C2)c1C [Example 2509, (R)-5-((2-(((2-(1H-1,2,4-triazol-5-yl)ethyl)(methyl)amino)methyl)-4-chloro-5-((3′-(3-(3-hydroxypyrrolidin-1-yl)propoxy)-2,2′-dimethyl-[1,1′-biphenyl]-3-yl)methoxy)phenoxy)methyl)nicotinonitrile]",0.2 nM
13,"Cc1n[nH]c(C)c1CNCc1cc(Cl)c(OCc2cccc(-c3cccc(OCCCN4CC[C@@H](O)C4)c3C)c2C)cc1OCc1cncc(C#N)c1 [Example 2570, (R)-5-((4-chloro-2-((((3,5-dimethyl-1H-pyrazol-4-yl)methyl)amino)methyl)-5-((3′-(3-(3-hydroxypyrrolidin-1-yl)propoxy)-2,2′-dimethyl-[1,1′-biphenyl]-3-yl)methoxy)phenoxy)methyl)nicotinonitrile]",1.5 nM
14,"Cc1c(COc2cc(OCc3cncc(C#N)c3)c(CN(C)Cc3ncco3)cc2Cl)cccc1-c1cccc(OCCCN2CC[C@@H](O)C2)c1C [Example 2550, (R)-5-((4-chloro-5-((3′-(3-(3-hydroxypyrrolidin-1-yl)propoxy)-2,2′-dimethyl-[1,1′-biphenyl]-3-yl)methoxy)-2-((methyl(oxazol-2-ylmethyl)amino)methyl)phenoxy)methyl)nicotinonitrile]",0.5 nM
15,"Cc1c(COc2cc(OCc3cncc(C#N)c3)c(CNCc3nnc4ccc(C(F)(F)F)cn34)cc2Cl)cccc1-c1cccc(OCC2CCCN(C)C2)c1Cl (stereo not drawn) [Example 2619, 5-((4-chloro-5-((2′-chloro-2-methyl-3′-((1-methylpiperidin-3-yl)methoxy)-[1,1′-biphenyl]-3-yl)methoxy)-2-((((6-(trifluoromethyl)-[1,2,4]triazolo[4,3-a]pyridin-3-yl)methyl)amino)methyl)phenoxy)methyl)nicotinonitrile]",3.1 nM
16,"Cc1c(COc2cc(OCc3cncc(C#N)c3)c(CNCc3c[nH]cn3)cc2Cl)cccc1-c1cccc(OCCCN2CCC(O)(CO)CC2)c1Cl [Example 2010, 5-((2-((((1H-imidazol-4-yl)methyl)amino)methyl)-4-chloro-5-((2′-chloro-3′-(3-(4-hydroxy-4-(hydroxymethyl)piperidin-1-yl)propoxy)-2-methyl-[1,1′-biphenyl]-3-yl)methoxy)phenoxy)methyl)nicotinonitrile]",2.1 nM
17,"Cc1c(COc2cc(OCc3cncc(C#N)c3)c(CNCc3cc(C)n(C)n3)cc2Cl)cccc1-c1cccc(OCC2CCCN(C)C2)c1Cl (stereo not drawn) [Example 2596, 5-((4-chloro-5-((2′-chloro-2-methyl-3′-((1-methylpiperidin-3-yl)methoxy)-[1,1′-biphenyl]-3-yl)methoxy)-2-((((1,5-dimethyl-1H-pyrazol-3-yl)methyl)amino)methyl)phenoxy)methyl)nicotinonitrile]",2.9 nM
18,"Cc1c(COc2cc(OCc3cncc(C#N)c3)c(CNCc3nccs3)cc2Cl)cccc1-c1cccc(OCCCN2CC[C@@H](O)C2)c1C [Example 2530, (R)-5-((4-chloro-5-((3′-(3-(3-hydroxypyrrolidin-1-yl)propoxy)-2,2′-dimethyl-[1,1′-biphenyl]-3-yl)methoxy)-2-(((thiazol-2-ylmethyl)amino)methyl)phenoxy)methyl)nicotinonitrile]",6.2 nM
19,"CC(=O)NC1CCN(CCCOc2cccc(-c3cccc(COc4cc(OCc5cncc(C#N)c5)c(CN5CCCC5c5nnn[nH]5)cc4Cl)c3C)c2C)CC1 (stereo not drawn) [Example 1051, N-(1-(3-((3′-((4-((2-(1H-Tetrazol-5-yl)pyrrolidin-1-yl)methyl)-2-chloro-5-((5-cyano-pyridin-3-yl)methoxy)phenoxy)methyl)-2,2′-dimethyl-[1,1′-biphenyl]-3-yl)oxy)propyl)-piperidin-4-yl)acetamide]",2.1 nM
20,"CC(=O)NC1CCN(CCCOc2cccc(-c3cccc(COc4cc(OCc5cncc(C#N)c5)c(CNCc5nnn[nH]5)cc4Cl)c3C)c2Cl)CC1 [Example 1057, N-(1-(3-((3′-((4-((((1H-Tetrazol-5-yl)methyl)amino)methyl)-2-chloro-5-((5-cyano-pyridin-3-yl)methoxy)phenoxy)methyl)-2-chloro-2′-methyl-[1,1′-biphenyl]-3-yl)oxy)-propyl)piperidin-4-yl)acetamide]",0.7 nM
21,"CC(=O)NC1CCN(CCCOc2cccc(-c3cccc(COc4cc(OCc5cncc(C#N)c5)c(CN5CCC(c6nnn[nH]6)C5)cc4Cl)c3C)c2Cl)CC1 (stereo not drawn) [Example 1058, N-(1-(3-((3′-((4-((3-(1H-Tetrazol-5-yl)pyrrolidin-1-yl)methyl)-2-chloro-5-((5-cyano-pyridin-3-yl)methoxy)phenoxy)methyl)-2-chloro-2′-methyl-[1,1′-biphenyl]-3-yl)oxy)-propyl)piperidin-4-yl)acetamide]",1.9 nM
